Source: ChEMBL document CHEMBL3988442, “University of Dundee, Small-Polar-MMV Screening Library” (2021)
“And” between values parts separate entries of the source, which are not always exact repeats. Equal entries are not always repeated.

Target: T1, Coenzyme A biosynthesis bifunctional protein CoaBC (Mycobacterium tuberculosis (strain ATCC 25618 / H37Rv), UniProt P9WNZ1)
T1 sequence (P9WNZ1 whole entry): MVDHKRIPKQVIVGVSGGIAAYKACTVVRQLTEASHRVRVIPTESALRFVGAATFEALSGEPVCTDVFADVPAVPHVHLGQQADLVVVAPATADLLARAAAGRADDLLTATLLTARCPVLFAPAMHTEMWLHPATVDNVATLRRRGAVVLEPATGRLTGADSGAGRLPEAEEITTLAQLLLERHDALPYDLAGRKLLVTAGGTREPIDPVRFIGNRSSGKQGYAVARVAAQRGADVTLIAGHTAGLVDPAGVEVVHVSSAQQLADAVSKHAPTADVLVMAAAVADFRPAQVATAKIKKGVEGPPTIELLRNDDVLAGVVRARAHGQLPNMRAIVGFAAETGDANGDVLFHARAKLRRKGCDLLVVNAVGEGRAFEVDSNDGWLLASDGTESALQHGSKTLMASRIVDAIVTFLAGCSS
Assay: Biomol Green assay for MtCoaBC inhibitor, OD650 read
Type: functional

| Compound | IC50 |
| --- | --- |
| Cc1nc(C)c(CC(=O)N2CCC(c3ccn4nccc4n3)CC2)s1 | > 30.2 µM |
| COc1ccc(CN2CCC3(CCCN(C)C3=O)C2)c(OC)c1C (centres undefined) | > 30.2 µM |
| CC(C)CCc1n[nH]c(C(=O)O)c1Cl | > 50.1 µM |
| COc1ccc(C2CN(c3cc(C)ncn3)CCN2C(C)=O)cc1 (centres undefined) | > 30.2 µM |
| NC(=O)CCNC(=O)C1(N2CCCCC2)Cc2ccccc2C1 | > 30.2 µM |
| Cc1c(CN2CCCC(O)C2)[nH]c2ccc(F)cc12 (centres undefined) | > 30.2 µM |
| CC(=O)N1CCC(N2CCN3C(=O)N(Cc4ccccn4)C[C@H]3C2)CC1 | > 30.2 µM |
| Cc1nc(C)n(CC2CN(S(C)(=O)=O)Cc3nccn3C2)n1 (centres undefined) | > 30.2 µM |
| Fc1cccc(-c2nc(CN3CCCC(Cn4cncn4)C3)co2)c1 (centres undefined) | > 30.2 µM |
| COc1ccc(CNC(=O)NC(C)(CO)C2CC2)c(C(F)(F)F)c1 (centres undefined) | > 30.2 µM |
| Cc1ccc(CN2CCC3(CC2)C(=O)Nc2ccccc23)s1 | > 30.2 µM |
| CCc1ncc(C(=O)N2CC[C@@H]3CC[C@H](C2)N3C)cn1 | > 30.2 µM |
| CC(C)N1CCC(C(=O)N2CCc3c(nc(CC4CC4)[nH]c3=O)C2)CC1 | > 30.2 µM |
| CC(=O)Nc1nc(C(=O)N2CCCC2c2noc(C3CC3)n2)cs1 (centres undefined) | > 30.2 µM |
| Cc1nn(C)cc1S(=O)(=O)N[C@@H]1CCC[C@@H](N2CCCC2)[C@@H]1O | > 30.2 µM |
| CC(NCCCN1CCCC1=O)c1cc(Br)ccc1F (centres undefined) | > 30.2 µM |
| CN1CCN([C@H]2CCN(C(=O)c3cc(Cl)cn3C)C[C@H]2CCCO)CC1 | > 30.2 µM |
| Cc1cccc(CS(=O)(=O)NCc2nn(C)c3c2COCC3)c1 | > 30.2 µM |
| CC1c2ncc(Cn3cncn3)n2CCN1C(=O)c1ccsc1 (centres undefined) | > 30.2 µM |
| COCC1c2nnn(CC3CC3)c2CCN1C(=O)N1CCCC1 (centres undefined) | > 30.2 µM |
| CCc1nccn1CC1CCCN1S(=O)(=O)Cc1ccccc1 (centres undefined) | > 30.2 µM |
| Cc1csc(CN2CCC[C@]3(C[C@H](Oc4ccccn4)CO3)C2)n1 | > 30.2 µM |
| Cc1ccc(CCCC(=O)N(C)CCN2CCOCC2)cc1 | > 30.2 µM |

| Compound | IC50 |
| --- | --- |
| CC(CS(C)(=O)=O)N(C(=O)CCc1cccc(F)c1)C1CC1 (centres undefined) | > 30.2 µM |
| COCCN(Cc1cnn(C)c1)CC1CCN(C(C)C)CC1 | > 30.2 µM |
| CCNC(=O)NC(=O)CNC(C)(C)c1ccc2c(c1)OCCO2 | > 30.2 µM |
| Cc1cc(NC(=O)CN2CCc3cnc(C(C)C)nc3C2)on1 | > 30.2 µM |
| Nc1ccncc1-n1cc(CCO)cn1 | > 30.2 µM |
| COc1ccc(-c2nnsc2C(=O)N2CCC(C(N)=O)CC2)cc1 | > 30.2 µM |
| O=C1O[C@@H]2CN(c3cnccn3)C[C@@H]2N1CCCc1ccc(F)cc1 | > 30.2 µM |
| O=C1O[C@@H]2CN(c3ccc(Cl)cn3)C[C@@H]2N1CCc1ccc(F)cc1 | > 30.2 µM |
| COC(=O)c1cccc2nc([C@H]3CCN(Cc4ccccc4)C3)oc12 | > 30.2 µM |
| COCC(=O)N1CCC(Oc2cccc(C)c2)CC1 | > 30.2 µM |
| CC(C)c1[nH]c2ncccc2c1CN1CCC(O)CC1 | > 30.2 µM |
| CN(Cc1ccccc1)C(=O)Cn1nc(N2CCOCC2)ccc1=O | > 30.2 µM |
| CC(C)CN1C[C@@H]2OCC(=O)N(c3ccccc3)[C@@H]2C1 | > 30.2 µM |
| CCN1CCCC(O)(CN(C)Cc2ccc(C)o2)C1 (centres undefined) | > 30.2 µM |
| COc1ccccc1C1CC(=O)Nc2c1c(=O)[nH]n2C1CCCC1 (centres undefined) | > 30.2 µM |
| CN(C)Cc1cccc(-c2cccnc2C(=O)NCc2cn(C)cn2)c1 | > 30.2 µM |
| CCc1nc(C)c(CN2CCCC(c3nn(C)c(=O)n3CC)C2)[nH]1 (centres undefined) | > 30.2 µM |
| CN1CCC(c2cccc(C(=O)N(C)C)n2)CC1 | > 30.2 µM |
| CS(=O)(=O)N1CCN(C(=O)c2cc(-c3ccc(Br)s3)n[nH]2)CC1 | > 30.2 µM |
| Cn1cc(CN2CCCC3(CCN(Cc4ccncc4)C3=O)C2)cn1 (centres undefined) | > 30.2 µM |
| O=C1N(Cc2ccccn2)C[C@H]2CN(C3CCC3)CCN12 | > 30.2 µM |
| Cc1ccc(-n2c(O)cc(C)c(C#N)c2=O)c(C)c1 | > 30.2 µM |
| CCn1ccnc1CNCc1ccc(C)cc1OC(C)(C)C | > 30.2 µM |

| Compound | IC50 |
| --- | --- |
| COCCC1CCN([C@@H]2c3ccccc3C3(CCNCC3)[C@H]2O)CC1 | > 30.2 µM |
| Cc1nc(O)cc(C2(C)CCCNC2)n1 (centres undefined) | > 30.2 µM |
| Cn1cccc1CN1CCc2ncnc(-c3cccnc3)c2CC1 | > 30.2 µM |
| CC(C)N(CC(C)(C)O)C(=O)NC1CC1 | > 30.2 µM |
| COc1ccccc1OCC(=O)NS(=O)(=O)c1cccnc1 | > 30.2 µM |
| COCCC(=O)N1CC2(CCN(Cc3ccoc3)C2)C1 | > 30.2 µM |
| CNC(=O)CCc1cccc(C2CCCN(c3cc(C)ncn3)C2)n1 (centres undefined) | > 30.2 µM |
| CCc1ncncc1C(=O)NCCNS(=O)(=O)c1ccc(C)cc1 | > 30.2 µM |
| c1cc(-c2nnc([C@H]3CCNC3)o2)ccn1 | > 30.2 µM |
| CC(C)C1CN(C(=O)c2cn3cc(Cl)cnc3n2)CCCN1CC1CC1 (centres undefined) | > 30.2 µM |
| CC(C)n1nnnc1-c1ccc(NC(=O)C(C)(C)C#N)cc1F | > 30.2 µM |
| Cc1cc(C)nc(N2CCCC(C(=O)Nc3n[nH]c(C(C)C)n3)C2)n1 (centres undefined) | > 30.2 µM |
| Cc1ccc(S(=O)(=O)Nc2ccc(N3CCSCC3)c(C(=O)O)c2)s1 | > 30.2 µM (2×) and 32.4 µM and 45.1 µM |
| CC(C)c1noc(C[S+]([O-])CC(=O)Nc2ccc(F)c(F)c2)n1 (centres undefined) | > 30.2 µM |
| CCCS(=O)(=O)NCC(O)c1c(Cl)cccc1Cl (centres undefined) | > 30.2 µM |
| CN1CCCC(CNC(=O)N(C)Cc2ccc(Cl)c(F)c2)C1 (centres undefined) | > 30.2 µM |
| CCn1ncnc1C(C)NC(=O)CC1CCN(C(C)C)CC1 (centres undefined) | > 30.2 µM |
| Cc1cnn(CC2CCCN2Cc2nnc(-c3ccccc3)o2)c1 (centres undefined) | > 30.2 µM |
| O=C1c2c(O)cc(O)cc2O[C@@H](c2ccc(O)cc2)[C@@H]1O | > 30.2 µM |
| c1ccc(-c2nc(CN3CCCC3Cn3cncn3)co2)cc1 (centres undefined) | > 30.2 µM |
| COc1cccc(N2CCN(C(=O)C(C)Oc3ccccc3)CC2=O)c1 (centres undefined) | > 30.2 µM |
| Cc1cc(C)n(C2CN(CC(=O)N(C)Cc3cnn(C)c3)C2)n1 | > 30.2 µM |
| c1cncc(CN2CCc3ncnc(C4CCOC4)c3CC2)c1 (centres undefined) | > 30.2 µM |

| Compound | IC50 |
| --- | --- |
| CN(Cc1nnc(C2CC2)n1C)C1CCN(Cc2ccncc2)C1 (centres undefined) | > 30.2 µM |
| CC(C(=O)NC1CC1)n1nc(-c2cccs2)cc(N)c1=O (centres undefined) | > 30.2 µM |
| NS(=O)(=O)c1cc(C(=O)N2CCCCC2)cs1 | > 30.2 µM |
| COCCN(Cc1cnn(C)c1)CC1CCOC1 (centres undefined) | > 30.2 µM |
| COc1cccc(Cc2nc3c([nH]2)CC(C)(C)CNC3=O)c1OC | > 30.2 µM |
| CC(C)NC1CCN(CCc2ccc3c(c2)CCO3)CC1 | > 50.1 µM |
| OC(CN1CCC(c2ccn[nH]2)CC1)c1ccc(F)cc1F (centres undefined) | > 30.2 µM |
| CNC(=O)[C@@]12CCC3(CCN(S(=O)(=O)C4CC4)CC3)[C@@H]1CN(C(C)=O)C2 | > 30.2 µM |
| Cc1nn(C)c(C)c1C1CCCN1C(=O)c1cnc2onc(C)c2c1 (centres undefined) | > 30.2 µM |
| Clc1cccc(Cl)c1CN(CCCN1CCOCC1)Cc1cccnc1 | > 30.2 µM |
| COc1ccc(-n2cc(CNC(=O)c3cc[nH]n3)nn2)cc1 | > 30.2 µM |
| CC(NCC1(N(C)C)CCOCC1)c1ccc(SC(F)F)cc1 (centres undefined) | > 30.2 µM |
| O=C(NCc1ccco1)[C@H]1C[C@@H]2CCN(c3ncccn3)C[C@H]2O1 | > 30.2 µM |
| CC1CCN(c2nc(O)cc(C3CC(=O)N(C4CCCCC4)C3)n2)CC1 (centres undefined) | > 30.2 µM |
| Cc1nc(N2CCC(CN3CCCC3)CC2)c2cnn(C)c2n1 | > 30.2 µM |
| O=C(NCCNc1ncccn1)C1CCCC1 | > 30.2 µM |
| O=C(NCc1ccccc1)C1CN(c2ccccn2)CCO1 (centres undefined) | > 30.2 µM |
| Cc1nc(C2CCCN(C(=O)c3c(C)nn4cccnc34)C2)no1 (centres undefined) | > 30.2 µM |
| O[C@]12CCNC[C@H]1CN(c1ncccc1Cl)CC2 | > 30.2 µM |
| Cn1cnc2cc(NC(=O)c3n[nH]c4c3CCC4)ccc21 | > 30.2 µM |
| CC(C(=O)Nc1ccc(N2CCCCC2)nc1)n1cncn1 (centres undefined) | > 30.2 µM |
| O=C(NCc1ccon1)c1c(F)cc(Br)cc1F | > 30.2 µM |
| COc1ccc(NC2(C(=O)N3CCCn4cncc4C3)CCCC2)cc1 | > 30.2 µM |

| Compound | IC50 |
| --- | --- |
| CC(C)c1noc(CN2CCN(C(=O)c3cccnc3O)CC2)n1 | > 30.2 µM |
| Cc1cnc2[nH]c(C(F)(F)F)c(CN3CCCC(CO)C3)c2c1 (centres undefined) | > 30.2 µM |
| CC(CO)(NC(=O)NCc1ccc(Br)s1)C1CC1 (centres undefined) | > 30.2 µM |
| O=C(CCCC1CCCC1)NS(=O)(=O)CC1CC1 | > 30.2 µM |
| O=C(CCNc1ncccn1)Nc1ccc(Cn2cncn2)cc1 | > 30.2 µM |
| CN(Cc1nccs1)C1CCN(c2cccc(-c3cscn3)c2)CC1 | > 30.2 µM |
| Cc1cc(C(=O)N[C@H](C)c2onc(-c3cccnc3)c2C(=O)O)c(C)o1 | > 30.2 µM |
| CCn1cc(Cl)c(C(=O)NCCCN(C)C)n1 | > 30.2 µM |
| CC(NC(=O)CNC(=O)OC(C)(C)C)c1ccc(Cl)s1 (centres undefined) | > 30.2 µM |
| CCN1CCOCC2(CCCN(C(=O)c3cnccn3)C2)C1 (centres undefined) | > 30.2 µM |
| Cc1nn2cccnc2c1C(=O)N1CCCC(n2ccnc2C)C1 (centres undefined) | > 30.2 µM |
| C1=C(CNC2CCc3ncnn3C2)COc2ccccc21 (centres undefined) | > 30.2 µM |
| Cc1cncc(C(=O)N2CCO[C@H]3[C@H](OCCN(C)C)CC[C@@H]32)c1 | > 30.2 µM |
| CC(C)N1CC2(CCC1=O)CCN(c1ccnc3ccccc13)CC2 | > 30.2 µM |
| COc1c(-c2ccc(O)cc2)oc2cc(O)cc(O)c2c1=O [ISOKAEMPFERIDE] | > 30.2 µM |
| CCc1ncc2c(n1)CN(Cc1nc(-c3cccs3)no1)CC2 | > 30.2 µM |
| COCCNC(=O)c1nc2c(s1)CCCN2c1ccc(C)nn1 | > 30.2 µM |
| Cc1nn(C)c(Cl)c1C1CCCN1C(=O)c1ccncc1 (centres undefined) | > 30.2 µM |
| COC(=O)c1ccc(S(=O)(=O)N2CCC(Oc3cccnn3)CC2)cc1 | > 30.2 µM |
| COc1ccccc1N1CCN(CC(=O)NC(C)c2ccco2)CC1 (centres undefined) | > 30.2 µM |
| O=C(CCC1CCN(C2CCSCC2)CC1)NCC1CCCO1 (centres undefined) | > 30.2 µM |
| CN1CCOC(CNCC(=O)NCCC2=CCCCC2)C1 (centres undefined) | > 30.2 µM |
